Laboratory results taken from PMC6943437, “Coupling the Antimalarial Cell Penetrating Peptide TP10 to Classical Antimalarial Drugs Primaquine and Chloroquine Produces Strongly Hemolytic Conjugates” (Molecules, 2019).
Values joined by “and” are separate entries in the source; they are usually repeats but may differ in a detail not shown here. Equal entries are not always repeated. Where two headings read alike, the source gives them in different places.

Experiments:
hRBC = experiment: In vitro hemolytic activity on healthy erythrocytes; format: cell-based; details: cultures of hRBC and PiRBC, summary of Table 3
Experimental: (§1) For positive and negative controls, 1% Triton X-100 and PBS were added, respectively. After this period, the plates were centrifuged and supernatants transferred to another plate. Supernatant absorbance at 450 nm was assessed in a multi-mode microplate reader (Triad, Dynex Technologies, Chantilly, VA, USA) and values were treated using the following equation (1):(1) % Hemolysis=Abs−Abs(negative control)/Abs(positive control)−Abs(negative control)

P. falciparum W2 [1] = details: cited from earlier work
P. falciparum 3D7 [2] = details: cited from earlier work
P. falciparum 3D7 [3] = format: cell-based; details: P. falciparum 3D7 (CQ-sensitive), 48 h; read-out: IC50 ± SD (n = 3)
Experimental: These second-generation conjugates (synthesis routes depicted in Scheme 2; Scheme 3) were evaluated in vitro, alongside the commercial reference drug, CQ (1), their parent building blocks, TP10 and Cq (4), and first-generation conjugate 5a, regarding their ability to inhibit growth of blood-stage parasites of the CQ-sensitive P. falciparum 3D7 strain (Table 3). The primaquine analogues of Cq conjugates 5a and 14, respectively, PQ-C4-TP10 (3a) and TP10-S-S-PQ (Figure 2, 14′), were also included for comparison; the synthesis of these conjugates, 3a and 14′, has been reported elsewhere. Of note, substantial hemolysis was detected upon erythrocyte exposure to some of the test conjugates, particularly at the higher concentrations tested. In view of this, emolysis assays were also conducted on cultures of both hRBC and PiRBC (Table 3).
P. falciparum 3D7 strain (chloroquine and mefloquine susceptible) was continuously cultured as previously described. Parasitemia was monitored daily by microscopic examination of Giemsa (MERCK, Sigma-Aldrich) stained thin blood smears.
Synchronized ring-stage P. falciparum (3% hematocrit, 1% parasitemia) were incubated in a microtiter plate for 48 h in the presence of two-fold serial dilutions of TP10 and derived conjugates 11–15, in the 10–10000 nM concentration range. Cultures incubated with three-fold serial dilutions of chloroquine bisphosphate, and also of its analogue 4, in the 0.1–8000 nM concentration range, were included for comparison. Culture without test compounds was also added to the microtiter plate, as negative control. After incubation, 100 μL of a solution of SYBR Green (Thermo Fisher; SG; 0.001% v/v in PBS) was added to each well and plates incubated for another 60 min under standard culture conditions. Plates were then centrifuged at 2500 rpm for 2 min, the supernatant was discarded, and cells were re-suspended in 100 μL of PBS. Fluorescence was collected in a multi-mode microplate reader (Triad, Dynex Technologies) with excitation at 485 nm and emission at 535 nm. Fluorescence values were normalized (to take into account the normal growth of the parasite) and then plotted against logC. IC50 were determined using GraphPad Prism 6.

[4] = In vitro hemolytic activity on healthy erythrocytes; format: cell-based; details: healthy erythrocytes (hRBC); 10 µM, 1 h, hRBC only; dash with footnote c = hemolysis not detected; read-out: % hemolysis at 10 µM ± SD (n = 3), hRBC
Experimental: as §1

[5] = In vitro hemolytic activity on Plasmodium-infected erythrocyte cultures; format: cell-based; details: cultures with 3% PiRBC, dash with footnote c = hemolysis not detected, read-out: % hemolysis at 10 µM ± SD (n = 3), PiRBC
Experimental: as §1

P. falciparum W2 [6] = format: cell-based; details: P. falciparum W2 (CQ-resistant), 48 h, n = 3
Experimental: All conjugates and their respective parent CPP (Table 1), were screened in vitro for their antiplasmodial activity, using the CQ-resistant P. falciparum W2 strain. The primaquine analogue to 5a, i.e., conjugate 3 where the CPP is TP10, PQ-C4-TP10 (3a), was also included in the study for comparison.
Synchronized ring-stage P. falciparum parasites (W2 strain) were incubated with test compounds for 48 h in Roswell Park Memorial Institute (RPMI) 1640 medium containing 10% human serum or 0.5% Albumax serum substitute. Parasites were then fixed with 1% formaldehyde in phosphate-buffered saline (PBS), pH 7.4, for […] at RT and labeled with YOYO-1 (1 nM; molecular probes) in 0.1% Triton X-100 in PBS. Parasitemias were determined by flow cytometry, from dot plots (forward scatter versus fluorescence). For 50% inhibitory concentration (IC50) determinations, dose-response studies were performed, with the values normalized to percent control activity, and IC50s were calculated using GraphPad Prism, with data fitted by nonlinear regression.

Compound	hemolytic activity (in words) (hRBC)	IC50 (P. falciparum W2 [1]) [nM]	IC50 (P. falciparum 3D7 [2]) [nM]	IC50 (P. falciparum 3D7 [3]) [nM]	hemolysis at 1 h, 10 µM [4] [%]	hemolysis at 1 h, 10 µM [5] [%]	IC50 (P. falciparum W2 [6])
CCN(CC)CCCC(C)Nc1ccnc2cc(Cl)ccc12 (stereo not shown) [compound 1, chloroquine]	not hemolytic	699	21				
CC[C@H](C)[C@H](NC(=O)[C@H](CCCCN)NC(=O)[C@H](CCCCN)NC(=O)[C@H](C)NC(=O)[C@H](CC(C)C)NC(=O)[C@H](C)NC(=O)[C@H](C)NC(=O)[C@H](CC(C)C)NC(=O)[C@H](C)NC(=O)[C@H](CCCCN)NC(=O)[C@H](CC(C)C)NC(=O)[C@H](CC(N)=O)NC(=O)[C@@H](NC(=O)[C@H](CCCCN)NC(=O)CNC(=O)[C@H](CC(C)C)NC(=O)[C@H](CC(C)C)NC(=O)[C@H](Cc1ccc(O)cc1)NC(=O)CNC(=O)[C@H](C)NC(=O)CCCCCNC(=O)CCC(=O)NCCCCNc1ccnc2cc(Cl)ccc12)[C@@H](C)CC)C(=O)N[C@@H](CC(C)C)C(N)=O [compound 10]				800 ± 300	38 ± 2	19 ± 1	
CC[C@H](C)[C@H](NC(=O)[C@H](CCCCN)NC(=O)[C@H](CCCCN)NC(=O)[C@H](C)NC(=O)[C@H](CC(C)C)NC(=O)[C@H](C)NC(=O)[C@H](C)NC(=O)[C@H](CC(C)C)NC(=O)[C@H](C)NC(=O)[C@H](CCCCN)NC(=O)[C@H](CC(C)C)NC(=O)[C@H](CC(N)=O)NC(=O)[C@@H](NC(=O)[C@H](CCCCN)NC(=O)CNC(=O)[C@H](CC(C)C)NC(=O)[C@H](CC(C)C)NC(=O)[C@H](Cc1ccc(O)cc1)NC(=O)CNC(=O)[C@H](C)N)[C@@H](C)CC)C(=O)N[C@@H](CC(C)C)C(N)=O [TP10]	only slightly hemolytic			1900 ± 500	3.7 ± 0.1	3.4 ± 0.2	5530 nM and 5500 nM
N-(7-Methylquinolin-4-yl)butane-1,4-diamine [compound 4]	not hemolytic			70 ± 20			
